Test systems include A498; ACHN; DU-145; HOP-62; HOP-92; IGROV-1; KM12; MDA-N; OVCAR-4; OVCAR-5; OVCAR-8; RXF 393; SK-MEL-28; SK-MEL-5; T47D; TK-10; HCT-15; LOX IMVI; SK-MEL-2.
Assay in all cases: inhibition of tumour cell growth, NCI panel, 48 h

Each structure is given as a SMILES string.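 1) Cells in 96-well plates. 2) Compound, 48 h, 5 concentrations. 3) Linear interpolation between surrounding doses. 4) Unreached endpoint = highest concentration. GI50: concentration for 50% inhibition of growth.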 The source made the active and inactive calls. No stated cut-off is given here; in the data, active = GI50 up to about 1.1 µM and inactive = higher.

In the case of `CC(=O)NC1(C)C(C)C2CC1C(C)C2(C)C` (centres undefined), the GI50 in the assay on A498, in the assay with ACHN, in the assay on DU-145, with HOP-62, in the assay with HOP-92 and in the assay on IGROV-1 was > 100 µM (inactive) each time. For the same compound, the GI50 with KM12, in the assay on MDA-N, in the assay on OVCAR-4, with OVCAR-5, with OVCAR-8 and with RXF 393 was > 100 µM (inactive) each time. Moreover, the GI50 in the assay on SK-MEL-28, with SK-MEL-5, in the assay on T47D and in the assay on TK-10 was > 100 µM (inactive) each time.
For `COC(=O)Cc1c([C@H]2[C@H](CC(=O)OC)c3ccccc3N2C(C)=O)[nH]c2ccccc12`, the GI50 in the assay with A498 is > 100 µM (inactive); in the assay with ACHN, > 100 µM (inactive); with DU-145 it was > 100 µM (inactive); in the assay on HCT-15, 64.3 µM; with HOP-62 it was > 100 µM (inactive); in the assay on HOP-92, > 100 µM (inactive). For the same compound, the GI50 in the assay with IGROV-1 was 34.4 µM (inactive); in the assay with KM12, > 100 µM (inactive); in the assay with LOX IMVI, > 100 µM (inactive); with MDA-N it was > 100 µM (inactive); with OVCAR-5 it was > 100 µM (inactive); in the assay with OVCAR-8 it was > 100 µM (inactive). Moreover, the GI50 in the assay with RXF 393, in the assay on SK-MEL-28, with SK-MEL-2, in the assay on SK-MEL-5, in the assay with T47D and in the assay with TK-10 was > 100 µM (inactive) each time.
For `COC(NC(=O)Nc1ccc(C)cc1)(C(F)(F)F)C(F)(F)F`, the GI50 is 30.3 µM (inactive) with A498; 24 µM (inactive) in the assay with ACHN; 35.6 µM (inactive) in the assay with DU-145; 42.8 µM (inactive) in the assay on HOP-62; 33 µM (inactive) in the assay with HOP-92; 26.5 µM (inactive) in the assay on IGROV-1. The GI50 was 34.7 µM (inactive) in the assay with KM12; 3.08 µM (inactive) in the assay on LOX IMVI; 26.4 µM (inactive) in the assay with MDA-N; 34.2 µM (inactive) in the assay with OVCAR-4; 34.9 µM (inactive) in the assay on OVCAR-5; 25.2 µM (inactive) with OVCAR-8. The GI50 in the assay on RXF 393 was 23.1 µM (inactive); in the assay on SK-MEL-28, 42.2 µM (inactive); in the assay on SK-MEL-5, 15.6 µM (inactive); in the assay on T47D, 18.7 µM (inactive); in the assay with TK-10, 42.8 µM (inactive).
Consider `O=C(CC(=O)N(C(=O)/C=C\c1ccccc1)c1ccc(Cl)cc1)N1N=C(c2ccccc2)C(/N=N/c2cccc([N+](=O)[O-])c2)C1=O` (centres undefined), for which the GI50 with A498 is 6.03 µM (inactive); in the assay on ACHN, 5.13 µM (inactive); with DU-145, 13.3 µM (inactive); in the assay with HCT-15, 1.36 µM; with HOP-62, 11.9 µM (inactive); in the assay on HOP-92, 51.4 µM (inactive). The GI50 was 9.06 µM (inactive) with IGROV-1; 1.76 µM (inactive) with KM12; 2.98 µM (inactive) in the assay on LOX IMVI; 7.05 µM (inactive) with MDA-N; 48.9 µM (inactive) in the assay on OVCAR-5; 3.78 µM (inactive) with OVCAR-8. The GI50 in the assay on RXF 393 was 10.3 µM (inactive); in the assay with SK-MEL-28, 11.5 µM (inactive); in the assay with T47D, 4.2 µM (inactive); with TK-10, 7.89 µM (inactive).
Take `CCc1c(CNC2=NCCN2)c(CC)c(CNC2=NCCN2)c(CC)c1CNC1=NCCN1`: the GI50 in the assay with A498 is > 100 µM (inactive); with ACHN it was > 100 µM (inactive); in the assay on DU-145, > 100 µM (inactive); in the assay on HCT-15 it was more than 100 µM; in the assay with HOP-62, > 100 µM (inactive); with HOP-92, > 100 µM (inactive). For the same compound, the GI50 in the assay on IGROV-1, with KM12, in the assay on MDA-N, in the assay on OVCAR-4, in the assay with OVCAR-5 and with OVCAR-8 was > 100 µM (inactive) each time. The GI50 in the assay with RXF 393, in the assay on SK-MEL-28, in the assay on SK-MEL-2, in the assay with SK-MEL-5, with T47D and in the assay on TK-10 was > 100 µM (inactive) throughout.
Regarding `CC1C2CCC3C(O)C2(CC(O)C2(O)C1CC(O)C2(C)C)CC3(C)O` (centres undefined), the GI50 is > 100 µM (inactive) with A498; > 100 µM (inactive) in the assay on ACHN; > 100 µM (inactive) in the assay on DU-145; more than 100 µM in the assay on HCT-15; > 100 µM (inactive) in the assay on HOP-92; > 100 µM (inactive) in the assay on IGROV-1. In addition, the GI50 in the assay on KM12, with LOX IMVI, in the assay with MDA-N, with OVCAR-4, in the assay with OVCAR-5 and in the assay on OVCAR-8 was > 100 µM (inactive) each time. Also, the GI50 in the assay on SK-MEL-28, in the assay on SK-MEL-2, in the assay with SK-MEL-5, with T47D and in the assay with TK-10 was > 100 µM (inactive) each time.
Turning to `COc1ccc2c(c1OC)CN1CCc3cc4c(cc3C1C2)OCO4` (centres undefined) [TETRAHYDROBERBERINE], the GI50 was > 100 µM (inactive) in the assay with A498; > 100 µM (inactive) with ACHN; > 100 µM (inactive) in the assay on DU-145; more than 100 µM in the assay with HCT-15; > 100 µM (inactive) with HOP-62; > 100 µM (inactive) in the assay on HOP-92. The GI50 in the assay with IGROV-1, in the assay with KM12, with LOX IMVI, in the assay with MDA-N, in the assay with OVCAR-4 and in the assay with OVCAR-5 was > 100 µM (inactive) each time. Moreover, the GI50 with OVCAR-8, in the assay with SK-MEL-28, with SK-MEL-2, in the assay on SK-MEL-5, with T47D and in the assay on TK-10 was > 100 µM (inactive) in each case.
With `CC1=C(O)C(O)=C(C2=C(O)C(O)=C(C)C(=O)C2=O)C(=O)C1=O`, the GI50 is 31 µM (inactive) in the assay on A498; 28.1 µM (inactive) in the assay on ACHN; 31.3 µM (inactive) in the assay on DU-145; more than 100 µM in the assay on HCT-15; 44 µM (inactive) with HOP-62; 29.9 µM (inactive) in the assay on HOP-92. Further, the GI50 was 43.4 µM (inactive) with IGROV-1; 38.5 µM (inactive) with KM12; 30.6 µM (inactive) with LOX IMVI; 40.9 µM (inactive) in the assay on MDA-N; 24.6 µM (inactive) in the assay on OVCAR-4; 41.6 µM (inactive) with OVCAR-5. The GI50 in the assay with OVCAR-8 is 47.4 µM (inactive); in the assay with RXF 393 it was 26.7 µM (inactive); with SK-MEL-28 it was 29.2 µM (inactive); in the assay with SK-MEL-5, 27.2 µM (inactive); with T47D it was 37.5 µM (inactive).
As to `CC1(C)OP(=O)(c2ccccc2)C=C1Sc1ccc([N+](=O)[O-])cc1[N+](=O)[O-]` (centres undefined), the GI50 is > 100 µM (inactive) with A498; > 100 µM (inactive) with ACHN; 74.6 µM (inactive) with DU-145; 65.5 µM in the assay on HCT-15; > 100 µM (inactive) with HOP-62; 91.4 µM (inactive) in the assay with HOP-92. Moreover, the GI50 in the assay with IGROV-1 is > 100 µM (inactive); with KM12 it was 98.2 µM (inactive); in the assay with LOX IMVI, 36.6 µM (inactive); with MDA-N it was 71.8 µM (inactive); in the assay on OVCAR-4, 29.7 µM (inactive); with OVCAR-5, > 100 µM (inactive). Further, the GI50 is 62.1 µM (inactive) in the assay with OVCAR-8; 85.1 µM (inactive) with SK-MEL-28; > 100 µM (inactive) with SK-MEL-2; 42.7 µM (inactive) with SK-MEL-5; > 100 µM (inactive) with T47D; > 100 µM (inactive) in the assay with TK-10.
As for `N=C(CSS(=O)(=O)O)NC1CC2CCC1C2` (centres undefined), the GI50 in the assay with A498 was > 100 µM (inactive); in the assay with ACHN, > 100 µM (inactive); in the assay with DU-145, > 100 µM (inactive); in the assay on HCT-15, more than 100 µM; in the assay with HOP-62 it was 95.7 µM (inactive); in the assay with HOP-92, > 100 µM (inactive). In addition, the GI50 was > 100 µM (inactive) in the assay with IGROV-1; > 100 µM (inactive) in the assay with KM12; 46 µM (inactive) with LOX IMVI; > 100 µM (inactive) with MDA-N; > 100 µM (inactive) with OVCAR-4; > 100 µM (inactive) in the assay with OVCAR-8. Besides, the GI50 with RXF 393 is > 100 µM (inactive); with SK-MEL-28 it was > 100 µM (inactive); in the assay with SK-MEL-2, > 100 µM (inactive); in the assay on SK-MEL-5 it was > 100 µM (inactive); in the assay on T47D it was 71.8 µM (inactive); with TK-10 it was > 100 µM (inactive).
Consider `Cc1sc2nc3n(c(=O)c2c1C)N=C(c1ccc([N+](=O)[O-])cc1)CS3`, for which the GI50 with A498 was > 100 µM (inactive); in the assay with ACHN it was > 100 µM (inactive); with DU-145 it was > 100 µM (inactive); in the assay on HCT-15, more than 100 µM; in the assay on HOP-62, 61.9 µM (inactive); in the assay with HOP-92, > 100 µM (inactive). Further, the GI50 is > 100 µM (inactive) with KM12; > 100 µM (inactive) with LOX IMVI; > 100 µM (inactive) with MDA-N; > 10 µM (inactive) in the assay with OVCAR-4; > 100 µM (inactive) in the assay with OVCAR-5; > 100 µM (inactive) in the assay with OVCAR-8. The GI50 in the assay on RXF 393, in the assay with SK-MEL-28, with SK-MEL-5 and in the assay on T47D was > 100 µM (inactive) each time.

The record behind these values is ChEMBL document CHEMBL1201862, “PubChem BioAssay data set” (2004).
